Test results taken from paper PMC2362650, “Phase I and pharmacokinetic study of the topoisomerase II catalytic inhibitor fostriecin” (British Journal of Cancer, 1999).

Legend:
[1] = test system: murine leukaemia L1210; design: method as in Leopold et al, 1984; details: ref Leopold et al, 1984; cited from earlier work
[2] = test system: solid tumour; assay: Tumour response in phase I patients; type: in vivo, human; details: 2-20 mg m-2 day-1, days 1-5 every 4 weeks; 10 patients with measurable disease
Description: (§1) Fostriecin (CI-920) is a topoisomerase (topo) II catalytic activity inhibitor (Boritzki et al, 1988) (Figure 1). This novel class of topo II-targeting drugs is considered of potential value for treatment of patients with tumours resistant to classic topo II poisons, including anthracyclines and podophyllotoxins (Cummings and Smyth, 1993). The nuclear enzyme topo II is essential for the regulation of DNA conformation (reviewed in Osheroff et al, 1991). Central in its action is the formation of a complex with DNA. Stabilization of this complex by topo II poisons induces DNA damage and cell death (Froelich-Ammon and Osheroff, 1995). Decreased complex formation due to decreased topo II levels is considered to be an important mechanism of tumour-resistance to topo II poisons (Beck and Danks, 1991). The topo II catalytic inhibitor fostriecin is expected to have increased activity against tumour cells with low topo II levels and this was confirmed in in vitro studies (De Jong et al, 1991). […] Drug pharmacokinetics was analysed with high performance liquid chromatography with UV-detection. […] A metabolite, most probably dephosphorylated fostriecin, was detected in plasma and urine. […]

[3] = test system: GLC4/VM20x; assay: Microtiterwell tetrazolium growth-inhibition assay, medium with 40% pooled human plasma; type: cell-based; details: GLC4, 96 h; 4 days; medium with 40% human plasma; 95% CI 5.3-6.5
Description: as §1

Compound: C[C@@](O)(/C=C/[C@H]1CC=CC(=O)O1)[C@@H](C[C@@H](O)\C=C/C=C\C=C\CO)OP(=O)(O)O [fostriecin]
- activity against L1210 [1]: active
- tumour responses [2]: No tumour responses
- IC50 [3]: 5.9 µM
